Patent publication US20180000737A1, “INJECTABLE AGGREGATES FOR JOINT AND SOFT TISSUE DISTRESS” (VISGO THERAPEUTICS, INC., priority 2015, published 2018)

Details: sheep, in vivo, 7 days
Excerpt: In another embodiment, the present disclosure provides a composition that achieves both immediate and extended release of an active pharmaceutical ingredient (API) upon administration to a subject, the composition comprising chitosan particles and API, the release occurring through at least one of diffusion of API from the particles and breakdown of the particles to release entrapped API. In additional embodiments, the present disclosure provides a composition that achieves both immediate and extended release of an API which is characterized by any one or more of the following exemplary features: the chitosan particles comprise crosslinked chitosan; the API is an NSAID; the API is diclofenac which optionally may be in whole or in part in crystalline form; the immediate release occurs over a period of 12 hours from the administration, and releases from 5 to 70% of API from the particles; the extended release occurs over a period of 0.5 to 7 days from administration, and releases 5 to 70% of the API from the particles; the particles are taken up by the synovium after administration to the subject. […] Accordingly, the incorporation of API into a crosslinked chitosan particle as disclosed herein may provide an extended release of API into the synovial fluid.

synovial fluid concentration of diclofenac: about 0.05 mg/mL
Compound: O=C(O)Cc1ccccc1Nc1c(Cl)cccc1Cl [diclofenac, 2-(2-(2,6-dichlorophenylamino)phenyl)acetic acid]
